From US5486597A, “Tetrapeptide derivatives and analogues” (James Black Foundation Limited, priority 1990, dated 1996)
Non-standard residues stand in square brackets, D forms with d. Residues, ends and D or L forms follow the SMILES beside them. *: point of attachment. Trp(5-F) = N[C@@H](Cc1c[nH]c2ccc(F)cc12)C(=O)O; 2Nal = N[C@@H](Cc1ccc2ccccc2c1)C(=O)O; Boc = CC(C)(C)OC(=O)*

Tests used:
Assay type in all cases: cell-based
gastrin receptor [1] = target: T1, gastrin receptor (Mus musculus, UniProt P56481); assay: mouse stomach assay for gastrin activity (isolated stomach, acid secretion); conditions: for Kb / pKB mouse stomach: isolated mouse stomach assay, gastrin antagonism, standard errors less than 5%; for Kb: read-out: pKB mouse stomach (converted); for Acid seretion at 10^-5 M test compound, relative to pentagastrin (%): mouse stomach, NS = not significant
T1 construct: assayed for gastrin activity using the mouse stomach assay; from tissue; host or cells: isolated mouse stomach
T1 sequence (P56481 1-453): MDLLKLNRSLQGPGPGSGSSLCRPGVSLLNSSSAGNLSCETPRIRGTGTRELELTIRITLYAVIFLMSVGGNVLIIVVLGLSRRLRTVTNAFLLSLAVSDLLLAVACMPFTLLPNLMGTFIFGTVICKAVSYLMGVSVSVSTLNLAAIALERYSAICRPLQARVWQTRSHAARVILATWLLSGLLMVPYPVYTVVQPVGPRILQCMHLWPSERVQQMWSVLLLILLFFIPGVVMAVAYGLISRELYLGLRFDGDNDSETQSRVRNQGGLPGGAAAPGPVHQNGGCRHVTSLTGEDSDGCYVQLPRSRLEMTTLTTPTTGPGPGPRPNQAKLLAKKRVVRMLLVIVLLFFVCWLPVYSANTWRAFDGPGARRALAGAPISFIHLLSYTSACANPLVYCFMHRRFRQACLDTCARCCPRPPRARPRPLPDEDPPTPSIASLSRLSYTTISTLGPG
Experimental: The compounds were assayed for gastrin activity using the mouse stomach assay as described by Black, J. W. and Shankley, N. P., Br. J. Pharmacol., 86, 571-579, (1985), and also in the guinea-pig fundus assay, as follows: […]

[2] = target: T2, cholecystokinin receptors (Cavia porcellus, UniProt Q63931); assay: CCK-antagonist activity in isolated guinea-pig gall-bladder strip preparations; conditions: guinea-pig gall-bladder strips; CCK-8 as agonist; test compound incubated for 60 minutes; standard errors less than 5%
T2 construct: Isolated, strip preparations were prepared from gall-bladders removed from male Dunkin-Hartley guinea-pigs; from tissue; host or cells: guinea-pig gall-bladder strips
T2 sequence (Q63931 1-430): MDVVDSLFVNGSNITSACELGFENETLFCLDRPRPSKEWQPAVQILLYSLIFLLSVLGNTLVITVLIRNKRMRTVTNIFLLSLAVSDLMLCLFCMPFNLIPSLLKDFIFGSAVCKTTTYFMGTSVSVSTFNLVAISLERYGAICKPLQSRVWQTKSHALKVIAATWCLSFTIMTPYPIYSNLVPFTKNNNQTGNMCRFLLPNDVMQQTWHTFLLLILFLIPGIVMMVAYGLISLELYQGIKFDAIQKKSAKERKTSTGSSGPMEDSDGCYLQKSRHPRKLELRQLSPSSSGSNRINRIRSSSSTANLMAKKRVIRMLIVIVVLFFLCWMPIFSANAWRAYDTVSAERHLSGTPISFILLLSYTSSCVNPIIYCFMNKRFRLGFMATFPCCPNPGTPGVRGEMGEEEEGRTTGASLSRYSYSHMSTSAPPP
Method in brief: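 Male Dunkin-Hartley guinea-pig gall-bladder strips under 1 g isometric tension in Krebs (0.5 mM Ca²⁺), 37° C, 95% O2/5% CO2, stabilised 90 min. Cumulative CCK-8 concentration-effect curves without and with test compound (60 min preincubation); antagonism expressed as […] by modified competitive analysis.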

gastrin receptor [3] = target: T3, gastrin receptor (Cavia porcellus, UniProt H0VZC5); assay: guinea-pig fundus assay for gastrin activity (stomach muscle strips); conditions: 10^-8 M devazepide present, 60 minute equilibration, agonist e.g. pentagastrin, standard errors less than 5%
T3 construct: Strips of muscle (approximately 2.5 cm by 1 cm) are removed from the proximal area of the stomach; from tissue; host or cells: guinea-pig proximal stomach (fundus) muscle strips
T3 sequence (H0VZC5 1-426): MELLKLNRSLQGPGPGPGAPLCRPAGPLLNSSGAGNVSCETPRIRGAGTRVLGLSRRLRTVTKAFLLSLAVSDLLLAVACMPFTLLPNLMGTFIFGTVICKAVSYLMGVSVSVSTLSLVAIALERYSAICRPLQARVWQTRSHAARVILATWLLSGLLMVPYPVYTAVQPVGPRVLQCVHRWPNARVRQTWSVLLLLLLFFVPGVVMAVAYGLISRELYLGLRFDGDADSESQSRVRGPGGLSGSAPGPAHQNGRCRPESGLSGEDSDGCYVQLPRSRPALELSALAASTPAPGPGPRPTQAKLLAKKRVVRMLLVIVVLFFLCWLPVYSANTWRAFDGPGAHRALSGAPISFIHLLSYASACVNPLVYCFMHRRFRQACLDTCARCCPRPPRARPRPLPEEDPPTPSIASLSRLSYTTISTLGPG
Experimental: The compounds were assayed for gastrin activity using the mouse stomach assay as described by Black, J. W. and Shankley, N. P., Br. J. Pharmacol., 86, 571-579, (1985), and also in the guinea-pig fundus assay, as follows:
The stomach is removed from a male Dunkin-Hartley guinea-pig (250-500 g), and Krebs solution is injected through a hypodermic needle under the top stomach muscle layer. The composition (mM) of the Krebs solution is as follows: Na^+ 143, K^+ 5.9, Ca^2+ 2.5, Mg^2+ 1.2, Cl^- 128, H2 PO4^- 2.2, HCO3^- 24.9, SO4^2- 1.2, dextrose 10. Strips of muscle (approximately 2.5 cm by 1 cm) are removed from the proximal area of the stomach (one from each side) and tied with cotton thread to isotonic transducers under an initial loading tension of 0.35 g.
The preparation is immersed in 20 mls of Krebs solution containing 10^-8 M devazepide (25 μl 2×10^-3 M devazepide/100% DMF solution in 5 dm^3 Krebs) and gassed with 95% O2 /5% CO2. The function of the devazepide is to block possible effects at CCK receptors present in the tissue.
The preparation is washed twice over a 60 minute period then 10 mM KCl is added. At 90 minutes, test compounds (ie. potential antagonists) are added and a further 60 minute equilibration period allowed. After this time, cumulative agonist (e.g. pentagastrin) dose-response curves are constructed.

Kb (gastrin receptor [1]) [µM]	Kb [2] [nM]	Kb (gastrin receptor [3]) [nM]	SMILES	Acid seretion at 10^-5 M test compound, relative to pentagastrin (%) (gastrin receptor [1])	pKB mouse stomach (gastrin receptor [1])	pKB [2]	pKB (gastrin receptor [3])
1.58	631	1260	CC(C)(C)OC(=O)N[C@@H](Cc1c[nH]c2ccc(F)cc12)C(=O)N[C@@H](Cc1ccc2ccccc2c1)C(=O)N[C@@H](CC(=O)O)C(=O)N[C@@H](Cc1ccccc1)C(N)=O [Example 18, N-t-Butyloxycarbonyl-5-fluoro-L-tryptophyl-L-3-(2-naphthyl)alanyl-L-aspartyl-L-phenylalaninamide] (Boc-[Trp(5-F)][2Nal]DF-NH2)	54			
			CC(C)(C)OC(=O)N[C@@H](Cc1c[nH]c2ccccc12)C(=O)N[C@@H](Cc1ccc2ccccc2c1)C(=O)N[C@@H](CC(=O)O)C(=O)NCCc1ccc(N)cc1 [Example 46, N-t-Butyloxycarbonyl-L-tryptophyl-L-3-(2-naphthyl)alanyl-L-aspartyl-4-aminophenethylamide]		5.6	6.5	6.0
			COc1ccc(CCNC(=O)[C@H](CC(=O)O)NC(=O)[C@H](Cc2ccc3ccccc3c2)NC(=O)[C@H](Cc2c[nH]c3ccccc23)NC(=O)OC(C)(C)C)cc1 [Example 10, N-t-Butyloxycarbonyl-L-tryptophyl-L-3-(2-naphthyl)alanyl-L-aspartyl-(4-methoxy)phenethylamide]		6.0	7.2	5.9
			CC(C)(C)OC(=O)N[C@@H](Cc1c[nH]c2ccccc12)C(=O)N[C@@H](Cc1ccc2ccccc2c1)C(=O)N[C@@H](CC(=O)O)C(=O)N[C@@H]1CCC[C@H]1c1ccccc1 (single isomer, unassigned; diastereomer 1) [Example 31, N-t-Butyloxycarbonyl-L-tryptophyl-L-3-(2-naphthyl)alanyl-L-aspartyl-trans-2-phenylcyclopentylamide (diastereomer 1)]	40	5.0	6.5	6.1
			CC(C)(C)OC(=O)N[C@@H](Cc1c[nH]c2ccccc12)C(=O)N[C@@H](Cc1ccc2ccccc2c1)C(=O)N[C@@H](CC(=O)O)C(=O)NCCc1ccc(F)cc1 [Example 47, N-t-Butyloxycarbonyl-L-tryptophyl-L-3-(2-naphthyl)alanyl-L-aspartyl-4-fluorophenethylamide]	25	5.5	6.7	5.8
			COc1ccc(C[C@H](NC(=O)[C@H](CC(=O)O)NC(=O)[C@H](Cc2ccc3ccccc3c2)NC(=O)[C@H](Cc2c[nH]c3ccccc23)NC(=O)OC(C)(C)C)C(N)=O)cc1 [Example 7, N-t-Butyloxycarbonyl-L-tryptophyl-L-3-(2-naphthyl)alanyl-L-aspartyl-L-(4-methoxyphenylalanin)amide] (Boc-W[2Nal]DY(Me)-NH2)		5.7	5.8	5.3
			CC(C)(C)OC(=O)N[C@@H](Cc1c[nH]c2ccccc12)C(=O)N[C@@H](Cc1ccc2ccccc2c1)C(=O)N[C@H](CC(=O)O)C(=O)NCCc1ccc(F)cc1 [Example 52, N-t-Butyloxycarbonyl-L-tryptophyl-L-3-(2-naphthyl)alanyl-D-aspartyl-4-fluorophenethylamide]	25	5.6	6.4	5.9
5.01	501	1580	COc1ccc2[nH]cc(CC(NC(=O)OC(C)(C)C)C(=O)N[C@@H](Cc3ccc4ccccc4c3)C(=O)N[C@@H](CC(=O)O)C(=O)N[C@@H](Cc3ccccc3)C(N)=O)c2c1 (mixture of isomers) [Example 19, N-t-Butyloxycarbonyl-5-methoxy-D,L-tryptophyl-L-3-(2-naphthyl)alanyl-L-aspartyl-L-phenylalaninamide]	80			
			CC(C)(C)OC(=O)N[C@@H](Cc1c[nH]c2ccccc12)C(=O)N[C@@H](Cc1ccc2ccccc2c1)C(=O)N[C@@H](CC(=O)O)C(=O)NCCc1cccc(F)c1 [Example 65, N-t-Butyloxycarbonyl-L-tryptophyl-L-3-(2-naphthyl)alanyl-L-aspartyl-3-fluorophenethylamide]		5.3	6.7	6.1
			CC(C)(C)OC(=O)N[C@@H](Cc1c[nH]c2ccccc12)C(=O)N[C@@H](Cc1ccc2ccccc2c1)C(=O)N[C@@H](CC(=O)O)C(=O)N[C@@H]1CCC[C@@H]1c1ccccc1 (single isomer, unassigned; diastereomer 2) [Example 34, N-t-Butyloxycarbonyl-L-tryptophyl-L-3-(2-naphthyl)alanyl-L-aspartyl-cis-2-phenylcyclopentylamide (diastereomer 2)]	40	6.5	6.9	5.8
			CC(C)(C)OC(=O)N[C@@H](Cc1c[nH]c2ccccc12)C(=O)N[C@@H](Cc1ccc2ccccc2c1)C(=O)N[C@@H](CC(=O)O)C(=O)NCCc1ccccc1F [Example 54, N-t-Butyloxycarbonyl-L-tryptophyl-L-3-(2-naphthyl)alanyl-L-aspartyl-2-fluorophenethylamide]	25	5.4	6.4	6.2
			CC(C)(C)OC(=O)N[C@@H](Cc1c[nH]c2ccccc12)C(=O)N[C@@H](Cc1ccc2ccccc2c1)C(=O)N[C@@H](CC(=O)O)C(=O)NCCc1ccc(Cl)c(Cl)c1 [Example 42, N-t-Butyloxycarbonyl-L-tryptophyl-L-3-(2-naphthyl)alanyl-L-aspartyl-3,4-dichlorophenethylamide]	30	5.2	6.0	5.3
			CC(C)(C)OC(=O)N[C@@H](Cc1c[nH]c2ccccc12)C(=O)N[C@@H](Cc1ccc2ccccc2c1)C(=O)N[C@@H](CC(=O)O)C(=O)N[C@@H]1CCC[C@@H]1c1ccccc1 (single isomer, unassigned; diastereomer 1) [Example 33, N-t-Butyloxycarbonyl-L-tryptophyl-L-3-(2-naphthyl)alanyl-L-aspartyl-cis-2-phenylcyclopentylamide (diastereomer 1)]		5.2	7.0	6.2
